13 compounds from ChEMBL document CHEMBL5032500, “Adenosine A2AR/A1R Antagonists Enabling Additional H3R Antagonism for the Treatment of Parkinson's Disease” (J Med Chem, 2021) can be followed below.

For experiment [1], the target named is T1, Adenosine receptor A2b (Homo sapiens) (UniProt P29275).
T1 sequence (whole entry): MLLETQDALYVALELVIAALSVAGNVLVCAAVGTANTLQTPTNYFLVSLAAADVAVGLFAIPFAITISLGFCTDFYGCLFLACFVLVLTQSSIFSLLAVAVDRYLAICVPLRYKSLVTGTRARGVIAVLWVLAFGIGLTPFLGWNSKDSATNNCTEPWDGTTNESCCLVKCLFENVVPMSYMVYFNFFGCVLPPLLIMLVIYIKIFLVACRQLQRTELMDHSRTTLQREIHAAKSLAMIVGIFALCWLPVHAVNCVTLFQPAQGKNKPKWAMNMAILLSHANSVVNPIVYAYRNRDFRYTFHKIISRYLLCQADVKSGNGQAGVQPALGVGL
The experiment in a line: Displacement of [3H]PSB-603 from human recombinant adenosine A2B receptor expressed in CHO cells at 1 uM by liquid scintillation counting analysis. The class given is cell-based. (In a radioligand displacement assay an active substance lowers the binding of a labelled ligand.)

Experiment [2] addresses T2, Adenosine receptor A2b (Homo sapiens, UniProt P29275).
T2 sequence (P29275 whole entry): T1 sequence (whole entry)
The experiment in a line: Displacement of [3H]PSB-603 from human recombinant adenosine A2B receptor expressed in CHO cells by liquid scintillation counting analysis. It counts as cell-based.

In experiment [3] the target is T3, Adenosine receptor A1 (Homo sapiens) (UniProt P30542).
T3 sequence (whole entry): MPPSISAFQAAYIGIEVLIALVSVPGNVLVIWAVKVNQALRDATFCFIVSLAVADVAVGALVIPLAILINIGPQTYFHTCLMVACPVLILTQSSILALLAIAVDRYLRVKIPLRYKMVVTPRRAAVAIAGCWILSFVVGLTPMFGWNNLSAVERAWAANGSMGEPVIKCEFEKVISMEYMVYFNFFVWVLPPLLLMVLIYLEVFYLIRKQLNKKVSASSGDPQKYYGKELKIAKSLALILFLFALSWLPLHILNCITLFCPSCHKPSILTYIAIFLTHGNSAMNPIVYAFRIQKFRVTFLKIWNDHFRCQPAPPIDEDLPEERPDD
The experiment in a line: Displacement of [3H]CCPA from human recombinant adenosine A1 receptor expressed in CHO cells at 1 uM by liquid scintillation counting analysis. It counts as cell-based.

In experiment [4] the target is T4, Adenosine receptor A2a (Homo sapiens, UniProt P29274). Briefly: Displacement of [3H]MSX-2 from human recombinant adenosine A2A receptor expressed in CHO cells by liquid scintillation counting analysis. The class given is cell-based.
T4 sequence (P29274 whole entry): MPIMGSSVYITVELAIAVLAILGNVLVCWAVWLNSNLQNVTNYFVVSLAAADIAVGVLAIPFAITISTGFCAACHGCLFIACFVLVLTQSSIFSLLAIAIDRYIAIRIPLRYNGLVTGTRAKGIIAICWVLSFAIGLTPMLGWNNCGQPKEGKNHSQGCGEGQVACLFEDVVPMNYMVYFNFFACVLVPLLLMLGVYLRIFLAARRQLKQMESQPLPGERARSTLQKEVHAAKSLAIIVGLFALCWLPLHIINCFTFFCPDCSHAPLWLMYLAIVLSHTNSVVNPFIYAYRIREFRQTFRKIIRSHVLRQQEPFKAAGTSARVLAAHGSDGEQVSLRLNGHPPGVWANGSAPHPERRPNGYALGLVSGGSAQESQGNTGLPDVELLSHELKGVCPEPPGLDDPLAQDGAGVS
Experiment [5] deals with T5, Adenosine receptor A1 (Homo sapiens, UniProt P30542).
T5 sequence (P30542 whole entry): T3 sequence (whole entry)
Briefly: Displacement of [3H]CCPA from human recombinant adenosine A1 receptor expressed in CHO cells by liquid scintillation counting analysis. The class given is cell-based.

The target in experiment [6] is Histamine H3 receptor (Homo sapiens, UniProt Q9Y5N1). The experiment in a line: Displacement of [3H] N-alpha methylhistamine from human recombinant histamine H3 receptor expressed in HEK293 cells measured after 90 mins. It counts as cell-based.
Histamine H3 receptor, sequence (Q9Y5N1 whole entry): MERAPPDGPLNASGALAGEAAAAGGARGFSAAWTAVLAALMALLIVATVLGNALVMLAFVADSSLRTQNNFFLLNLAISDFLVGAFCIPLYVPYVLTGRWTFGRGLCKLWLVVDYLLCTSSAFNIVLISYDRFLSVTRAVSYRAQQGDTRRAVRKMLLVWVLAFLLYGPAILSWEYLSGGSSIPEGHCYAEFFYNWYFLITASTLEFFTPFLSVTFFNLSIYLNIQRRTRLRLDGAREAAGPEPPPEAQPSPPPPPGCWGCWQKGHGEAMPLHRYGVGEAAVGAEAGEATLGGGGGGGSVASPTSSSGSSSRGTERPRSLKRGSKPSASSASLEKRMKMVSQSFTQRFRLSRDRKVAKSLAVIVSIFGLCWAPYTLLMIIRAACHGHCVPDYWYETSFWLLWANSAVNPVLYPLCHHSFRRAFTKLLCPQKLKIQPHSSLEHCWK
The target of experiment [7] is T6, Adenosine receptor A3 (Homo sapiens) (UniProt P0DMS8).
T6 sequence (whole entry): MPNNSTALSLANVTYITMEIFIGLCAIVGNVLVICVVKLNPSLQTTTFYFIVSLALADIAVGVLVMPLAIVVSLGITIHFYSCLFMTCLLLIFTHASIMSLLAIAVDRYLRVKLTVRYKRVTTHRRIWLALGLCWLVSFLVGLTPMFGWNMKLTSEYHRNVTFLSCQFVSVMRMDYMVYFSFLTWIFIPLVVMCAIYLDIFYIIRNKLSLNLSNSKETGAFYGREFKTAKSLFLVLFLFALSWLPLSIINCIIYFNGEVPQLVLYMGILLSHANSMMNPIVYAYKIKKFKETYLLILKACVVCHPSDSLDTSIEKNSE
Briefly: Displacement of [3H]PSB-11 from human recombinant adenosine A3 receptor expressed in CHO cells at 1 uM by liquid scintillation counting analysis. The class given is cell-based.

Experiment [8] concerns the target T7, Adenosine receptor A3 (Homo sapiens, UniProt P0DMS8).
T7 sequence (P0DMS8 whole entry): T6 sequence (whole entry)
Briefly: Displacement of [3H]PSB-11 from human recombinant adenosine A3 receptor expressed in CHO cells by liquid scintillation counting analysis. It counts as cell-based.

The target in experiment [9] is T4, Adenosine receptor A2a. Briefly: Displacement of [3H]MSX-2 from human recombinant adenosine A2A receptor expressed in CHO cells at 1 uM by liquid scintillation counting analysis. It counts as cell-based.
Experiment [10] has as its system SH-SY5Y. Briefly: Cytotoxicity against human SH-SY5Y cells assessed as remaining cell viability at 1000 nM incubated for 24 hrs. It counts as functional.

For orientation: inhibition means the drop in the measured response relative to a control, in per cent. For orientation: Ki means a dissociation constant, usually derived from enzyme kinetics or from competition with a known ligand.

Consider `Nc1nc(-c2ccc(OCCCN3CCCCC3)cc2)c2c(n1)-c1ccc(OCCCN3CCCCC3)cc1C2`, for which the inhibition in [1] amounted to 13%; in experiment [3], 23%; in [7] (filed as antagonist), 50%. Moreover, the Ki in experiment [2] is more than 1 µM; in [4] it was 0.941 µM; in experiment [5], more than 1 µM; in experiment [6], 0.0006 µM; in experiment [8], more than 1 µM.
`Nc1nc(-c2ccccc2)c2c(n1)-c1cc(OCCCN3CCCC3)ccc1C2=O`: the Ki in [2] is 0.0475 µM; in [4], 0.00624 µM; in experiment [5] it was 0.0126 µM; in experiment [6], 0.017 µM; in [8] it was 0.199 µM.
Take `Nc1nc(-c2ccccc2)c2c(n1)-c1ccc(OCCCN3CCCCC3)cc1C2`: the inhibition in experiment [1] was 34%; in [3], 24%; in [9], 34%; in experiment [7] it was 39%. Further, the Ki is more than 1 µM in [2]; more than 1 µM in experiment [4]; more than 1 µM in [5]; 0.0023 µM in experiment [6]; more than 1 µM in experiment [8].
With `Nc1nc(-c2ccc(OCCCN3CCCCC3)cc2)c2c(n1)-c1ccc(OCCCN3CCCCC3)cc1C2=O`, the inhibition was 15% in [1], 44% in experiment [3] (filed as antagonist) and 32% in [7]. The Ki in experiment [2] was more than 1 µM; in experiment [4], 0.203 µM; in experiment [5] it was not below 1 µM; in [6], 0.00031 µM; in experiment [8] it was more than 1 µM.
Turning to `O=C(c1ccc(OCCCc2c[nH]cn2)cc1)C1CC1`, the inhibition is 8% in [1], -6% in [3], -1% in experiment [9] and 3% in experiment [7].
Take `Nc1nc(-c2ccccc2)c2c(n1)-c1ccc(OCCCN3CCCCC3)cc1C2=O`: the Ki is 0.114 µM in experiment [2]; 0.142 µM in [4]; 0.367 µM in experiment [5]; 0.036 µM in [6]; more than 1 µM in experiment [8]. The inhibition in experiment [7] was 12%.
Turning to `O=C(c1ccc(OCCCc2cnc[nH]2)cc1)C1CC1` [CIPROXIFAN], the Ki in [2], in [4], in [5] and in [8] was more than 1 µM throughout.
As to `Nc1nc(-c2ccc(OCCCN3CCCCC3)cc2)c2c(n1)-c1ccccc1C2`, the figures for the inhibition in experiment [1] and in experiment [7] were 28% and 24%, respectively. Besides, the Ki in experiment [2] was more than 1 µM; in [4] it was 0.717 µM; in [5], 2.51 µM; in experiment [6], 0.00049 µM; in [8], more than 1 µM.
For `COCCOc1ccc(N2CCN(CCn3ncc4c3nc(N)n3nc(-c5ccco5)nc43)CC2)cc1` [PRELADENANT], the Ki in [2] and in experiment [8] was more than 1 µM each time.
`Nc1nc(-c2ccccc2)c2c(n1)-c1cc(OCCCN3CCCCC3)ccc1C2`: the Ki in [2] is 0.0581 µM; in experiment [4], 0.00485 µM; in [5], 0.0187 µM; in [6] it was 0.0045 µM; in experiment [8], 0.231 µM. The Activity in experiment [10] is listed as more than 75%.
In the case of `Nc1nc(-c2ccc(OCCCN3CCCCC3)cc2)c2c(n1)-c1ccccc1C2=O`, the inhibition constant Ki in [2] is 0.331 µM; in experiment [4], 0.0355 µM; in [5] it was 0.133 µM; in experiment [6], 0.00028 µM; in experiment [8], more than 1 µM. Besides, the inhibition in experiment [7] was determined as 33%.
In the case of `O=C(c1ccc(OCCCN2CCCCC2)cc1)C1CC1`, the inhibition in experiment [1] is 0%; in [3], -5%; in experiment [9], -3%; in experiment [7], -2%. The Ki in experiment [2], in experiment [4], in [5] and in [8] was more than 1 µM each time.
For the compound `Nc1nc(-c2ccccc2)c2c(n1)-c1ccc(OCCCN3CCCC3)cc1C2=O`, the Ki in experiment [2] was 0.18 µM; in experiment [4] it was 0.104 µM; in experiment [5], 0.129 µM; in [6], 0.031 µM; in experiment [8], 0.846 µM.
